US20250381243A1, “HETEROCYCLES AND USES THEREOF” (Kumquat Biosciences Inc., priority 2022, published 2025)

System: A549 cells
Assay: Cell proliferation assay (CellTiter-Glo), cells with K-Ras G12S mutation
Type: cell-based
Settings: Homo sapiens, 500 nM to 5 μM (mixed units), read-out: Inhibition of A549 Cells (IC50)
Description: A549 (ATCC CRL-185) and LS123 (ATCC CRL-255) cell lines comprise a G12S mutation and can be used to assess Ras cellular signaling in vitro, e.g., in response to treatment with a compound described herein. A549 culture medium is prepared with RPMI-1640 and 10% heat-inactivated FBS. LS123 culture medium is prepared with RPMI-1640 and 10% heat-inactivated FBS. A CellTiter-Glo (CTG) luminescent based assay (Promega) is used to assess growth of the cells, as a measurement of the ability of the compounds herein to inhibit Ras signaling in the cells. The cells (e.g., 800 per well) are seeded in their respective culture medium in standard tissue culture-treated 384-well format plates (Falcon #08-772-116) or ultra-low attachment surface 384-well format plates (S-Bio #MS-9384WZ). The day after plating, cells are treated with a dilution series (e.g., a 10 point 3-fold dilution series) of the compounds herein (e.g., approximately 40 μl final volume per well). Cell viability can be monitored (e.g., approximately 6 days later) according to the manufacturer's recommended instructions, where CellTiter-Glo reagent is added (e.g., approximately 10 μl), vigorously mixed, covered, and placed on a plate shaker (e.g., approximately for 20 min) to ensure sufficient cell lysis prior to assessment of luminescent signal. The IC50 values are determined using the four parameter fit. The resulting IC50 value is a measurement of the ability of the test compound to reduce cell growth of Ras-driven cells (e.g., tumor cell lines) in vitro and/or in vivo.

IC50 | Structure (SMILES)
500 to 5000 nM | N#CCCN(C(=O)n1cncn1)C1CCCN(c2nc(OC[C@@]34CCCN3C[C@H](F)C4)nc3c(F)c(-c4ccc(F)c5sc(N)c(C#N)c45)c(Cl)cc23)CC1 (stereo partly drawn) [Compound 166, N-(1-(7-(2-amino-3-cyano-7-fluorobenzo[b]thiophen-4-yl)-6-chloro-8-fluoro-2-(((2R,7aS)-2-fluorotetrahydro-1H-pyrrolizin-7a(5H)-yl)methoxy)quinazolin-4-yl)azepan-4-yl)-N-(2-cyanoethyl)-1H-1,2,4-triazole-1-carboxamide]
500 to 5000 nM | CC([C@H]1CCN1C(=O)n1cnc(Cl)n1)N(C)c1nc(OC[C@@]23CCCN2C[C@H](F)C3)nc2c(F)c(-c3ccc(F)c4sc(N)c(C#N)c34)c(Cl)cc12 (stereo partly drawn) [Compound 172, (4R)-2-amino-4-(6-chloro-4-((1-(1-(3-chloro-1H-1,2,4-triazole-1-carbonyl)azetidin-2-yl)ethyl)(methyl)amino)-8-fluoro-2-(((2R,7aS)-2-fluorotetrahydro-1H-pyrrolizin-7a (5H)-yl)methoxy)quinazolin-7-yl)-7-fluorobenzo[b]thiophene-3-carbonitrile]
500 to 5000 nM | C[C@H]1CC[C@]2(CN(C(=O)n3cnc(C#N)n3)[C@@H]2C2(C)CC2)CN1c1nc(OC[C@@]23CCCN2C[C@H](F)C3)nc2c(F)c(-c3ccc(F)c4sc(N)c(C#N)c34)c(Cl)cc12 [Compound 232, 1-((1R,4R,7S)-6-(7-(2-amino-3-cyano-7-fluorobenzo[b]thiophen-4-yl)-6-chloro-8-fluoro-2-(((2R,7aS)-2-fluorotetrahydro-1H-pyrrolizin-7a(5H)-yl)methoxy)quinazolin-4-yl)-7-methyl-1-(1-methylcyclopropyl)-2,6-diazaspiro[3.5]nonane-2-carbonyl)-1H-1,2,4-triazole-3-carbonitrile]

Same assay, conditions: Homo sapiens, ≤500 nM, read-out: Inhibition of A549 Cells (IC50)

Structure (SMILES) | IC50
CC1([C@H]2N(C(=O)n3cnc(F)n3)C[C@]23CCCN(c2nc(OC[C@@]45CCCN4C[C@H](F)C5)nc4c(F)c(-c5ccc(F)c6sc(N)c(C#N)c56)c(Cl)cc24)C3)CC1 [Compound 216, 2-amino-4-(6-chloro-8-fluoro-4-((1R,4R)-2-(3-fluoro-1H-1,2,4-triazole-1-carbonyl)-1-(1-methylcyclopropyl)-2,6-diazaspiro[3.5]nonan-6-yl)-2-(((2R,7aS)-2-fluorotetrahydro-1H-pyrrolizin-7a(5H)-yl)methoxy)quinazolin-7-yl)-7-fluorobenzo[b]thiophene-3-carbonitrile] | ≤ 500 nM
C[C@H]1CC[C@]2(CN(C(=O)n3cnc(F)n3)[C@@H]2C2(C(F)F)CC2)CN1c1nc(OC[C@@]23CCCN2C[C@H](F)C3)nc2c(F)c(-c3ccc(F)c4sc(N)c(C#N)c34)c(Cl)cc12 (atropisomer, axis not shown; (aS)) [Compound 194, (R)-2-amino-4-(6-chloro-4-((1S,4R,7S)-1-(1-(difluoromethyl)cyclopropyl)-2-(3-fluoro-1H-1,2,4-triazole-1-carbonyl)-7-methyl-2,6-diazaspiro[3.5]nonan-6-yl)-8-fluoro-2-(((2R,7aS)-2-fluorotetrahydro-1H-pyrrolizin-7a(5H)-yl)methoxy)quinazolin-7-yl)-7-fluorobenzo[b]thiophene-3-carbonitrile] | ≤ 500 nM
CC1N(C(=O)n2cncn2)CC12CCCN(c1nc(OC[C@@]34CCCN3C[C@H](F)C4)nc3c(F)c(-c4ccc(F)c5sc(N)c(C#N)c45)c(Cl)cc13)C2 (stereo partly drawn) [Compound 182, 2-amino-4-(6-chloro-8-fluoro-2-(((2R,7aS)-2-fluorotetrahydro-1H-pyrrolizin-7a(5H)-yl)methoxy)-4-(1-methyl-2-(1H-1,2,4-triazole-1-carbonyl)-2,6-diazaspiro[3.5]nonan-6-yl)quinazolin-7-yl)-7-fluorobenzo[b]thiophene-3-carbonitrile] | ≤ 500 nM
CC(C)C1N(C(=O)n2cnc(Cl)n2)CC12CC(CC#N)CN(c1nc(OC[C@@]34CCCN3C[C@H](F)C4)nc3c(F)c(-c4ccc(F)c5sc(N)c(C#N)c45)c(Cl)cc13)C2 (single isomer, unassigned) [Compound 117] | ≤ 500 nM
N#Cc1c(N)sc2c(F)ccc(-c3c(Cl)cc4c(N5CCC[C@@]6(C5)CN(C(=O)n5cnc(Cl)n5)[C@@H]6C5CCC5)nc(OC[C@@]56CCCN5C[C@H](F)C6)nc4c3F)c12 [Compound 133, 2-amino-4-(6-chloro-4-((1R,4R)-2-(3-chloro-1H-1,2,4-triazole-1-carbonyl)-1-cyclobutyl-2,6-diazaspiro[3.5]nonan-6-yl)-8-fluoro-2-(((2R,7aS)-2-fluorotetrahydro-1H-pyrrolizin-7a(5H)-yl)methoxy)quinazolin-7-yl)-7-fluorobenzo[b]thiophene-3-carbonitrile] | ≤ 500 nM
CC(C)N(C(=O)n1cncn1)[C@H]1CCN(c2nc(OC[C@@]34CCCN3C[C@H](F)C4)nc3c(F)c(-c4ccc(F)c5sc(N)c(C#N)c45)c(Cl)cc23)C1 [Compound 180, N-((3S)-1-(7-(2-amino-3-cyano-7-fluorobenzo[b]thiophen-4-yl)-6-chloro-8-fluoro-2-(((2R,7aS)-2-fluorotetrahydro-1H-pyrrolizin-7a(5H)-yl)methoxy)quinazolin-4-yl)pyrrolidin-3-yl)-N-isopropyl-1H-1,2,4-triazole-1-carboxamide] | ≤ 500 nM
CCN(C(=O)n1cncn1)C1CCN(c2nc(OC[C@@]34CCCN3C[C@H](F)C4)nc3c(F)c(-c4ccc(F)c5sc(N)c(C#N)c45)c(Cl)cc23)C1 (stereo partly drawn) [Compound 177, N-(1-(7-(2-amino-3-cyano-7-fluorobenzo[b]thiophen-4-yl)-6-chloro-8-fluoro-2-(((2R,7aS)-2-fluorotetrahydro-1H-pyrrolizin-7a(5H)-yl)methoxy)quinazolin-4-yl)pyrrolidin-3-yl)-N-ethyl-1H-1,2,4-triazole-1-carboxamide] | ≤ 500 nM
CN(C[C@@H]1CN(C(=O)n2cnc(F)n2)[C@@H]1C(C)(C)C)c1nc(OC[C@@]23CCCN2C[C@H](F)C3)nc2c(F)c(-c3ccc(F)c4sc(N)c(C#N)c34)c(Cl)cc12 [Compound 152, 2-amino-4-(4-((((2S,3R)-2-(tert-butyl)-1-(3-fluoro-1H-1,2,4-triazole-1-carbonyl)azetidin-3-yl)methyl)(methyl)amino)-6-chloro-8-fluoro-2-(((2R,7aS)-2-fluorotetrahydro-1H-pyrrolizin-7a(5H)-yl)methoxy)quinazolin-7-yl)-7-fluorobenzo[b]thiophene-3-carbonitrile] | ≤ 500 nM

Second part, the compound after the results:

IC50 | Structure (SMILES)
≤ 500 nM | CN(C[C@@H]1CN(C(=O)n2cnc(F)n2)[C@@H]1C1(CF)CC1)c1nc(OC[C@@]23CCCN2C[C@H](F)C3)nc2c(F)c(-c3ccc(F)c4sc(N)c(C#N)c34)c(Cl)cc12 [Compound 148, 2-amino-4-(6-chloro-8-fluoro-4-((((2S,3R)-1-(3-fluoro-1H-1,2,4-triazole-1-carbonyl)-2-(1-(fluoromethyl)cyclopropyl)azetidin-3-yl)methyl)(methyl)amino)-2-(((2R,7aS)-2-fluorotetrahydro-1H-pyrrolizin-7a(5H)-yl)methoxy)quinazolin-7-yl)-7-fluorobenzo[b]thiophene-3-carbonitrile]
≤ 500 nM | C=CCN(C[C@@H]1CN(C(=O)n2cnc(F)n2)[C@@H]1C1(C)CC1)c1nc(OC[C@@]23CCCN2C[C@H](F)C3)nc2c(F)c(-c3ccc(F)c4sc(N)c(C#N)c34)c(Cl)cc12 [Compound 136, 4-(4-(allyl(((2S,3R)-1-(3-fluoro-1H-1,2,4-triazole-1-carbonyl)-2-(1-methylcyclopropyl)azetidin-3-yl)methyl)amino)-6-chloro-8-fluoro-2-(((2R,7aS)-2-fluorotetrahydro-1H-pyrrolizin-7a(5H)-yl)methoxy)quinazolin-7-yl)-2-amino-7-fluorobenzo[b]thiophene-3-carbonitrile]
≤ 500 nM | CC1([C@H]2N(C(=O)n3cnc(F)n3)C[C@]23CCCCN(c2nc(OC[C@@]45CCCN4C[C@H](F)C5)nc4c(F)c(-c5ccc(F)c6sc(N)c(C#N)c56)c(Cl)cc24)C3)CC1 (atropisomer, axis not shown; (aS)) [Compound 193, (R)-2-amino-4-(6-chloro-8-fluoro-4-((1R,4R)-2-(3-fluoro-1H-1,2,4-triazole-1-carbonyl)-1-(1-methylcyclopropyl)-2,6-diazaspiro[3.6]decan-6-yl)-2-(((2R,7aS)-2-fluorotetrahydro-1H-pyrrolizin-7a (5H)-yl)methoxy)quinazolin-7-yl)-7-fluorobenzo[b]thiophene-3-carbonitrile]
≤ 500 nM | CC(C)[C@H]1N(C(=O)n2cnc(C#N)n2)C[C@]12CC[C@H](C)N(c1nc(OC[C@@]34CCCN3C[C@H](F)C4)nc3c(F)c(-c4ccc(F)c5sc(N)c(C#N)c45)c(Cl)cc13)C2 [Compound 227, 1-((1R,4R,7S)-6-(7-(2-amino-3-cyano-7-fluorobenzo[b]thiophen-4-yl)-6-chloro-8-fluoro-2-(((2R,7aS)-2-fluorotetrahydro-1H-pyrrolizin-7a(5H)-yl)methoxy)quinazolin-4-yl)-1-isopropyl-7-methyl-2,6-diazaspiro[3.5]nonane-2-carbonyl)-1H-1,2,4-triazole-3-carbonitrile]
